From patent publication US20100197581A1, “NATIVE GP41 ASSAY” (priority 2007, published 2010) come the findings set out here.

Like-named read-outs stand apart in the source and are kept apart here. A value given as a limit tells only on which side of the number the result lay.

A word on the EC50: it is the midpoint of the concentration-response curve.

Data set [1] addresses T1, gp41 (HR1 region) in native HIV-1 envelope spikes on HUTIIIB cells (Human immunodeficiency virus type 1 group M subtype B, UniProt P04578, V708A). The note with it: for activity in native gp41 assay (words, Table 4 results): reference compounds, flow cytometric- and HCS-based assay. How it is done: A serial dilution of test compounds, dissolved in DMSO, were diluted in culture medium (RPMI1640 with Ultraglutamin and Hepes w/o phenol red with 10% bovine calf serum (HyClone) and 20 μg/l gentamycin) with a final DMSO concentration of 1% and added to 384 well Cell Carrier plates (Evotec Technologies). Hut-IIIB cells (15000 cells/well) were added to these test plates and incubated for 30 min at room temperature. […] Finally, a solution of DRAQ 5 in PBS (final concentration of 5 μM) was added to the wells. After incubating the plates for 30′ at room temperature, the test plates were measured using the Opera™ confocal microscope high content screening platform (Evotec Technologies). After every addition, mixing of the well content was achieved by placing the 384w plates on a 384w shaker (MixMate, Eppendorf) for 5 seconds at 2000 rpm.
Image acquisition was performed using a 40× water immersion objective and simultaneous excitation of FITC and Draq5 fluorescence with a 488 and a 635 laser. […] Output parameters of the script included among others “mean (number of spots per cell)” and “mean (integrated spot signal)”. […] Furthermore, potential false positive results due to fluorescence or false negative results due to quenching can be assessed by comparing the inhibition curves generated by the two above mentioned output parameters.

For data set [2], the target named is T1, gp41 (HR1 region) in native HIV-1 envelope spikes on HUTIIIB cells. The format is binding, HIV-1 IIIB.
Setting [3] is: optimized protocol, […] C34-FITC, 75000 cells/well, compound added before sCD4, 3 independent experiments, read-out: EC50 flow cytometry.
[4] abbreviates: small molecules, specificity experiments, flow cytometry, read-out: Native gp41 EC50.

With `O=C1Nc2ccc(Cl)cc2[C@@](C#CC2CC2)(C(F)(F)F)O1` [EFV], the “cytotoxicity in HCS native gp41 assay” value in data set [1] (Hut-IIIB cells, 200 μM) was “cytotoxicity”. In data set [1], the “activity in native gp41 assay (words, Table 4 results)” value is “no activity”. The EC50 in data set [2] (setting [3]) and in data set [2] (setting [4]) was over 200 µM in each case.

For the molecule `CC(C)(C)NC(=O)[C@@H]1C[C@@H]2CCCC[C@@H]2CN1C[C@@H](O)[C@H](Cc1ccccc1)NC(=O)[C@H](CC(N)=O)NC(=O)c1ccc2ccccc2n1` [SQV], the EC50 in data set [2] (setting [4]) was over 200 µM.

Take `O=C(O)C1=CC(=C(c2ccc(O)c(C(=O)O)c2)c2ccc(O)c(C(=O)O)c2)C=CC1=O` [ATA]: the “inhibition of C34-FITC binding” value in data set [2] (small molecules, specificity experiments) is listed as “about 40%”. Further, the EC50 in data set [2] (setting [4]) is over 200 µM.

For the molecule `O=C(NCc1ccc(F)cc1)c1nc(N2CCCCS2(=O)=O)c2cccnc2c1O` [L870,810], the EC50 in data set [2] (setting [4]) is over 200 µM.

Consider `COc1ccnc2[nH]cc(C(=O)C(=O)N3CCN(C(=O)c4ccccc4)C[C@H]3C)c12` [BMS-806], for which the EC50 in data set [1] (read-out: EC50 HCS, mean number of spots per cell, 0.5 nM C34-FITC, compound added before sCD4, 3 independent experiments) was 0.0043 µM; in data set [2] (setting [3]), 0.013 µM; in data set [2] (setting [4]) it was over 200 µM. The “activity in native gp41 assay (words, Table 4 results)” value in data set [1] is given as “active”. The “difference between addition of compound before, after or together with sCD4 induction” value in data set [2] (three orders of addition, FIG. 1) was “large increase of sensitivity when the compound was added before or together with sCD4”.

Take `Cc1cn([C@H]2C[C@H](N=[N+]=[N-])[C@@H](CO)O2)c(=O)[nH]c1=O` [AZT]: the EC50 in data set [2] (setting [4]) was over 200 µM.
